# Assay results taken from article PMC6066355, “Probing the binding site of novel selective positive allosteric modulators at the M1 muscarinic acetylcholine receptor” (Biochemical Pharmacology, 2018).
# Substitutions are numbered along the chain they refer to. Where two headings read alike, the source gives them in different places.
# How the values were obtained:
# Assay in all cases: Whole cell [3H]NMS binding inhibition/interaction assay (ACh ± PAM), FlpIn CHO cells
# F77^2.56I M1 mAChR = target: T1, F77^2.56I M1 mAChR (Homo sapiens, UniProt P11229, F77I); conditions: for Logα NMS (logarithm of binding cooperativity between [3H]NMS and modulator): constrained to −2 where preferred model by F-test
# T1 construct: expressed in transfected cells
# T1 sequence (P11229 1-460 F77I): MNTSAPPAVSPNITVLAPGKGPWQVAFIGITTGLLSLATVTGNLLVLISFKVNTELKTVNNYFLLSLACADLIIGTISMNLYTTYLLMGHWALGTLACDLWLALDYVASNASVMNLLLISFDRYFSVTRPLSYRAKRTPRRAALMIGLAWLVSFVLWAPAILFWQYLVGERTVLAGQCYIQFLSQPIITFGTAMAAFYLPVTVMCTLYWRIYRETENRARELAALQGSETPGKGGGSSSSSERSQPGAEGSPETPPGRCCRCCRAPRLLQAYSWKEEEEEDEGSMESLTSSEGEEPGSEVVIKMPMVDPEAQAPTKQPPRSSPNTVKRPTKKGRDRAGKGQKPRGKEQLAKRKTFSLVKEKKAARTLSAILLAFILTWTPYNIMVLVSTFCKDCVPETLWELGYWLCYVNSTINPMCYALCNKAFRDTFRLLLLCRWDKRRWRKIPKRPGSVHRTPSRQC
# Procedure: (§1) Saturation binding assays were performed to estimate the expression levels and equilibrium dissociation constant of the radioligand (KD). FlpIn CHO cells stably expressing the WT or mutant c-myc hM1 mAChRs were plated at the density of 25,000 per well of 96-well white clear bottom Isoplates (PerkinElmer Life Sciences, Boston, MA), and grown overnight at 37 °C. […] Atropine at the final concentration of 100 µM was used to determine non-specific binding. The assays were terminated by rapid removal of the radioligand, and two washes with 100 µl/well ice-cold 0.9% NaCl buffer.
# (§2) All data were analysed using GraphPad Prism 7 (San Diego, CA). […] Binding interaction studies between orthosteric agonists and allosteric modulators were fitted to the following allosteric ternary complex model (Eq. (1)):(1) Y=BmaxD/D+KDKB/α^′B+KB1+I/KI+B/KB+αIB/KIKB where Bmax is the total number of receptors, [D], [B] and [I] denote the concentrations of radioligand, allosteric ligand, and orthosteric ligand, respectively, and KD, KB and KI represent their respective equilibrium dissociation constants. α′ and α are the cooperativity factors between the allosteric ligand and radioligand or orthosteric ligand, respectively.
# WT M1 mAChR = target: T2, WT M1 mAChR (Homo sapiens, UniProt P11229); conditions: for Logα NMS (logarithm of binding cooperativity between [3H]NMS and modulator): constrained to −2 where preferred model by F-test
# T2 construct: expressed in transfected cells
# T2 sequence (P11229 1-460): T1 sequence (P11229 1-460 F77I) with I77F
# Procedure: as §1, §2
# Y179^ECL2A M1 mAChR = target: T3, Y179^ECL2A M1 mAChR (Homo sapiens, UniProt P11229, Y179A); conditions: affinity and cooperativity could not be estimated
# T3 construct: expressed in transfected cells
# T3 sequence (P11229 1-460 Y179A): T1 sequence (P11229 1-460 F77I) with I77F, Y179A
# Procedure: as §1, §2
# Y82^2.61A M1 mAChR = target: T4, Y82^2.61A M1 mAChR (Homo sapiens, UniProt P11229, Y82A)
# T4 construct: expressed in transfected cells
# T4 sequence (P11229 1-460 Y82A): T1 sequence (P11229 1-460 F77I) with I77F, Y82A
# Procedure: as §1, §2
SMILES,Kb (F77^2.56I M1 mAChR),Logα ACh (logarithm of binding cooperativity between ACh and modulator) (F77^2.56I M1 mAChR; F77^2.56I),"α ACh (binding cooperativity with ACh, antilog in brackets) (F77^2.56I M1 mAChR; F77^2.56I)",Logα NMS (logarithm of binding cooperativity between [3H]NMS and modulator) (F77^2.56I M1 mAChR; F77^2.56I),Kb (WT M1 mAChR),Logα ACh (logarithm of binding cooperativity between ACh and modulator) (WT M1 mAChR; WT),Logα NMS (logarithm of binding cooperativity between [3H]NMS and modulator) (WT M1 mAChR; WT),Modulatory effect on ACh inhibition of [3H]NMS binding (Y179^ECL2A M1 mAChR),Kb (Y82^2.61A M1 mAChR),Logα ACh (logarithm of binding cooperativity between ACh and modulator) (Y82^2.61A M1 mAChR; Y82^2.61A),Logα NMS (logarithm of binding cooperativity between [3H]NMS and modulator) (Y82^2.61A M1 mAChR; Y82^2.61A),"α ACh (binding cooperativity with ACh, antilog in brackets) (Y82^2.61A M1 mAChR; Y82^2.61A)","α NMS (binding cooperativity with [3H]NMS, antilog in brackets) (Y82^2.61A M1 mAChR; Y82^2.61A)","α NMS (binding cooperativity with [3H]NMS, antilog in brackets) (F77^2.56I M1 mAChR; F77^2.56I)","Kb (F77^2.56I M1 mAChR; F77^2.56I, allosteric ternary complex model, 0.3 nM [3H]NMS, read-out: pKB (negative logarithm of the allosteric modulator equilibrium dissociation constant) (converted))","Kb (WT M1 mAChR; WT, allosteric ternary complex model, 0.3 nM [3H]NMS, read-out: pKB (negative logarithm of the allosteric modulator equilibrium dissociation constant) (converted))","Kb (Y82^2.61A M1 mAChR; Y82^2.61A, allosteric ternary complex model, 0.6 nM [3H]NMS, read-out: pKB (negative logarithm of the allosteric modulator equilibrium dissociation constant) (converted))","α ACh (binding cooperativity with ACh, antilog in brackets) (WT M1 mAChR; WT)"
"Cn1cc(-c2ccc(COc3ccccc3-c3cc(=O)n(C4CCCCC4O)cn3)cc2)cn1 (stereo not drawn) [MIPS1780, 3-(2-hydroxycyclohexyl)-6-(2-((4-(1-methyl-1H-pyrazol-4-yl)-benzyl)oxy)phenyl)pyrimidin-4(3H)-one]",661 nM,1.60 ± 0.09,25.7,= −2,661 nM,1.60 ± 0.08,= −2,completely abolished,10000 nM,1.66 ± 0.19,−0.16 ± 0.06,45.7,0.69,,,,,
"Cc1cnc(C(=O)N[C@H]2CCOC[C@@H]2O)cc1Cc1ccc(-c2cscn2)cc1 [PF-06767832, N-((3R,4S)-3-hydroxytetrahydro-2H-pyran-4-yl)-5-methyl-4-(4-(thiazol-4-yl)benzyl)pyridine-2-carboxamide]",,1.83 ± 0.14,44.7,−1.02 ± 0.12,,1.40 ± 0.08,−1.05 ± 0.06,completely abolished,,1.53 ± 0.11,−0.16 ± 0.02,30.9,0.62,0.06,417 nM,309 nM,2450 nM,
"Cn1cc(-c2ccc(Cn3cc(C(=O)N[C@H]4CCCC[C@@H]4O)c4c(F)cc(F)cc43)cn2)cn1 [VU6004256, 4,6-difluoro-N-(1S,2S)-2-hydroxycyclohexyl-1-((6-(1-methyl-1H-pyrazol-4-yl)pyridine-3-yl)methyl)-1H-indole-3-carboxamide]",417 nM,,,= −2,479 nM,1.40 ± 0.09,= −2,completely abolished,2240 nM,1.08 ± 0.13,−0.09 ± 0.03,11.2,0.76,,,,,15.5
